In PubChem BioAssay AID248 (DTP/NCI, 2004):
Several values for one entry are separate records, joined by “and”; a condition that tells them apart may be missing. Equal values may be shown once. Inconclusive results and toxic doses are left out.

System: L1210 leukemia ip in BDF1 mice, survival T/C
Assay: NCI In Vivo Anticancer Drug Screen. Data for tumor model L1210 Leukemia (intraperitoneal) in B6D2F1 (BDF1) mice
Conditions: higher = longer survival
How it was run: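 In this screen, tumor-bearing mice given compound are compared to those given vehicle, and their survival values are reported as a treated-to-control quotient.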

[1] = endpoint: mean survival time, dose: 25.0 mg/kg/injection, schedule: Q04DX003 (ip), vehicle: saline

## NC(CO)Cc1ccccc1 (centres undefined)
endpoint: mean survival time, dose: 6.25 mg/kg/injection, schedule: Q01DX009 (ip), vehicle: saline
  T/C: 107 % of control
endpoint: mean survival time, dose: 6.25 mg/kg/injection, schedule: Q04DX003 (ip), vehicle: saline
  T/C: 100 % of control
endpoint: mean survival time, dose: 12.5 mg/kg/injection, schedule: Q01DX009 (ip), vehicle: saline
  T/C: 96 % of control
endpoint: mean survival time, dose: 12.5 mg/kg/injection, schedule: Q04DX003 (ip), vehicle: saline
  T/C: 93 % of control
endpoint: mean survival time, dose: 25.0 mg/kg/injection, schedule: Q01DX009 (ip), vehicle: saline
  T/C: 102 % of control
[1]
  T/C: 105 % of control
endpoint: mean survival time, dose: 35.0 mg/kg/injection, schedule: Q01DX009 (ip), vehicle: saline
  T/C: 88 % of control
endpoint: mean survival time, dose: 55.0 mg/kg/injection, schedule: Q01DX009 (ip), vehicle: saline
  T/C: 98 % of control
endpoint: mean survival time, dose: 75.0 mg/kg/injection, schedule: Q01DX001 (ip), vehicle: carboxymethylcellulose (CMC)
  T/C: 86 % of control
endpoint: mean survival time, dose: 80.0 mg/kg/injection, schedule: Q01DX009 (ip), vehicle: saline
  T/C: 96 % of control and 98 % of control
endpoint: mean survival time, dose: 120.0 mg/kg/injection, schedule: Q01DX009 (ip), vehicle: saline
  T/C: 103 % of control
endpoint: mean survival time, dose: 150.0 mg/kg/injection, schedule: Q01DX001 (ip), vehicle: carboxymethylcellulose (CMC)
  T/C: 91 % of control
endpoint: mean survival time, dose: 180.0 mg/kg/injection, schedule: Q01DX009 (ip), vehicle: saline
  T/C: 121 % of control
endpoint: mean survival time, dose: 300.0 mg/kg/injection, schedule: Q01DX001 (ip), vehicle: carboxymethylcellulose (CMC)
  T/C: 88 % of control

## COC(=O)Nc1cccc(-c2nc3ccc(NC(=O)OC)cc3c(=O)n2-c2ccccc2)c1
endpoint: mean survival time, dose: 6.25 mg/kg/injection, schedule: Q01DX009 (ip), vehicle: Klucel (hydroxypropylcellulose) (HPC)
  T/C: 94 % of control and 98 % of control
endpoint: mean survival time, dose: 12.5 mg/kg/injection, schedule: Q01DX009 (ip), vehicle: Klucel (hydroxypropylcellulose) (HPC)
  T/C: 97 % of control and 101 % of control
endpoint: mean survival time, dose: 25.0 mg/kg/injection, schedule: Q01DX009 (ip), vehicle: Klucel (hydroxypropylcellulose) (HPC)
  T/C: 102 % of control and 88 % of control
endpoint: mean survival time, dose: 25.0 mg/kg/injection, schedule: Q01DX009 (ip), vehicle: other
  T/C: 113 % of control
endpoint: mean survival time, dose: 25.0 mg/kg/injection, schedule: Q01DX009 (oral), vehicle: Klucel (hydroxypropylcellulose) (HPC)
  T/C: 93 % of control and 97 % of control
[1]
  T/C: 97 % of control
endpoint: mean survival time, dose: 50.0 mg/kg/injection, schedule: Q01DX009 (ip), vehicle: Klucel (hydroxypropylcellulose) (HPC)
  T/C: 120 % of control
endpoint: mean survival time, dose: 50.0 mg/kg/injection, schedule: Q01DX009 (ip), vehicle: other
  T/C: 114 % of control
endpoint: mean survival time, dose: 50.0 mg/kg/injection, schedule: Q01DX009 (oral), vehicle: Klucel (hydroxypropylcellulose) (HPC)
  T/C: 102 % of control
endpoint: mean survival time, dose: 50.0 mg/kg/injection, schedule: Q04DX003 (ip), vehicle: saline
  T/C: 101 % of control
endpoint: mean survival time, dose: 100.0 mg/kg/injection, schedule: Q01DX009 (oral), vehicle: Klucel (hydroxypropylcellulose) (HPC)
  T/C: 97 % of control and 101 % of control
endpoint: mean survival time, dose: 100.0 mg/kg/injection, schedule: Q04DX003 (ip), vehicle: saline
  T/C: 103 % of control and 107 % of control
endpoint: mean survival time, dose: 200.0 mg/kg/injection, schedule: Q01DX009 (oral), vehicle: Klucel (hydroxypropylcellulose) (HPC)
  T/C: 104 % of control and 121 % of control
endpoint: mean survival time, dose: 200.0 mg/kg/injection, schedule: Q01DX009 (oral), vehicle: other
  T/C: 105 % of control
endpoint: mean survival time, dose: 200.0 mg/kg/injection, schedule: Q04DX003 (ip), vehicle: saline
  T/C: 110 % of control
endpoint: mean survival time, dose: 300.0 mg/kg/injection, schedule: Q01DX009 (oral), vehicle: other
  T/C: 102 % of control
endpoint: mean survival time, dose: 400.0 mg/kg/injection, schedule: Q01DX009 (oral), vehicle: Klucel (hydroxypropylcellulose) (HPC)
  T/C: 116 % of control and 121 % of control
endpoint: mean survival time, dose: 400.0 mg/kg/injection, schedule: Q01DX009 (oral), vehicle: other
  T/C: 116 % of control
endpoint: mean survival time, dose: 400.0 mg/kg/injection, schedule: Q04DX003 (ip), vehicle: saline
  T/C: 110 % of control
endpoint: mean survival time, dose: 500.0 mg/kg/injection, schedule: Q01DX009 (oral), vehicle: other
  T/C: 102 % of control
endpoint: mean survival time, dose: 800.0 mg/kg/injection, schedule: Q01DX009 (oral), vehicle: Klucel (hydroxypropylcellulose) (HPC)
  T/C: 119 % of control and 120 % of control
endpoint: median survival time, dose: 25.0 mg/kg/injection, schedule: Q01DX009 (oral), vehicle: saline
  T/C: 103 % of control
endpoint: median survival time, dose: 50.0 mg/kg/injection, schedule: Q01DX009 (oral), vehicle: saline
  T/C: 102 % of control
endpoint: median survival time, dose: 100.0 mg/kg/injection, schedule: Q01DX009 (oral), vehicle: saline
  T/C: 104 % of control
endpoint: median survival time, dose: 100.0 mg/kg/injection, schedule: Q04DX003 (ip), vehicle: other
  T/C: 158 % of control
endpoint: median survival time, dose: 100.0 mg/kg/injection, schedule: Q04DX003 (ip), vehicle: saline
  T/C: 185 % of control
endpoint: median survival time, dose: 200.0 mg/kg/injection, schedule: Q01DX009 (oral), vehicle: saline
  T/C: 104 % of control
endpoint: median survival time, dose: 200.0 mg/kg/injection, schedule: Q04DX003 (ip), vehicle: Klucel (hydroxypropylcellulose) (HPC)
  T/C: 158 % of control
endpoint: median survival time, dose: 200.0 mg/kg/injection, schedule: Q04DX003 (ip), vehicle: other
  T/C: 119 % of control
endpoint: median survival time, dose: 200.0 mg/kg/injection, schedule: Q04DX003 (ip), vehicle: saline with Tween-80
  T/C: 154 % of control
endpoint: median survival time, dose: 200.0 mg/kg/injection, schedule: Q04DX003 (oral), vehicle: saline
  T/C: 113 % of control
endpoint: median survival time, dose: 300.0 mg/kg/injection, schedule: Q04DX003 (oral), vehicle: saline
  T/C: 123 % of control
endpoint: median survival time, dose: 400.0 mg/kg/injection, schedule: Q04DX003 (ip), vehicle: Klucel (hydroxypropylcellulose) (HPC)
  T/C: 178 % of control
endpoint: median survival time, dose: 400.0 mg/kg/injection, schedule: Q04DX003 (ip), vehicle: saline with Tween-80
  T/C: 190 % of control
endpoint: median survival time, dose: 400.0 mg/kg/injection, schedule: Q04DX003 (oral), vehicle: saline
  T/C: 112 % of control
